# Assay results: patent US10738030B2, “Modulators of cystic fibrosis transmembrane conductance regulator” (Vertex Pharmaceuticals Incorporated, priority 2016, dated 2020)
# Target: T1, F508del (Homo sapiens, UniProt P13569, DEL508-508)
# T1 construct: expressed in transfected cells
# Assay: Membrane potential optical assay (FRET voltage-sensor dyes), identification of correction compounds
# Type: cell-based
# Conditions: NIH3T3 cells stably expressing F508del, procedures described above; for Emax: maximum efficacy, read-out: Max Efficacy; for EC50: modulation of CFTR activity
# Summary of the method: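 NIH3T3 mouse fibroblasts stably expressing F508del incubated 16 hrs at 37° C. in serum-free medium with or without compound. After dye loading (CC2-DMPE/DiSBAC2(3)), 10 μM forskolin plus 20 μM genistein added in Cl⁻-free medium; depolarization from Cl⁻ efflux read by FRET on VIPR II.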
# T1 sequence (P13569 with tags, fused parts or gaps DEL508-508): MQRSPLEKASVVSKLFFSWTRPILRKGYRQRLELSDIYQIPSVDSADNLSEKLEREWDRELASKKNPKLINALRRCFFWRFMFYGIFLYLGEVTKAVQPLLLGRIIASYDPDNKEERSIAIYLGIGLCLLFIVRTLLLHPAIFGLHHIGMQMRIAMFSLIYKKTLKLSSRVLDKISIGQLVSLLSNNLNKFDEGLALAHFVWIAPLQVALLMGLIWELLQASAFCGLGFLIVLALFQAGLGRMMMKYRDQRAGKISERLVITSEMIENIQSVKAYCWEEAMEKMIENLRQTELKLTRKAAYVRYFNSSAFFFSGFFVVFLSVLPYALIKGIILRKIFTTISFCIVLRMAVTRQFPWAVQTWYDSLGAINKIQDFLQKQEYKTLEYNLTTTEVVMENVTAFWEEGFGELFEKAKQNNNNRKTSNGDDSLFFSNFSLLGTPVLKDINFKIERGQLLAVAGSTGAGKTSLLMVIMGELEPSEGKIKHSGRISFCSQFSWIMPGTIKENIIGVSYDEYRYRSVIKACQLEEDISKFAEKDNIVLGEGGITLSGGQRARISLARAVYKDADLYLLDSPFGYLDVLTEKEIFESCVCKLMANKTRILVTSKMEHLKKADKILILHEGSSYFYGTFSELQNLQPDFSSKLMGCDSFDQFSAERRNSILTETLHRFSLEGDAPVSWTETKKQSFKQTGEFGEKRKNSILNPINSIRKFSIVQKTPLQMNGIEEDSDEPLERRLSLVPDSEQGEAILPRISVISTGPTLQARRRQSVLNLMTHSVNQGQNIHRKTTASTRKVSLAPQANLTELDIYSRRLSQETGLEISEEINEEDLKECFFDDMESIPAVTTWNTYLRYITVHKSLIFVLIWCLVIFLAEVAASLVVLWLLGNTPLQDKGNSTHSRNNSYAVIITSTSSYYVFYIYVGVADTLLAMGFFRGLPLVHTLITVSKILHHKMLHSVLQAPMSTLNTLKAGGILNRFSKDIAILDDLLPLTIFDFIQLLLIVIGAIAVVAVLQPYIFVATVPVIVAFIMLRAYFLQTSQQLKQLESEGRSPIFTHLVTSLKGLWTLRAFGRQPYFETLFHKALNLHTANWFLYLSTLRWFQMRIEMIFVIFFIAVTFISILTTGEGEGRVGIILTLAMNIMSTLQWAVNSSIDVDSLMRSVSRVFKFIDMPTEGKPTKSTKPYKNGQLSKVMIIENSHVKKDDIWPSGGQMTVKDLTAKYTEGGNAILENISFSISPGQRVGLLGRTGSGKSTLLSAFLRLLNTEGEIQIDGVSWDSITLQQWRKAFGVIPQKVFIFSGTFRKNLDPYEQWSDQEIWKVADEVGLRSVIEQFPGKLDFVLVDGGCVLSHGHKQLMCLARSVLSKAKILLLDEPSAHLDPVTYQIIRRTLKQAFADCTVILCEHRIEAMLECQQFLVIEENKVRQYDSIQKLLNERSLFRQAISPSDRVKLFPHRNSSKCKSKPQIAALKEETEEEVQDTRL
Compound,Emax [%],EC50 [µM]
"CCN(C)c1nc(-c2cc(F)cc(OCC(C)C)c2)ccc1C(=O)NS(=O)(=O)c1cccc(N)n1 [Compound 67, N-[(6-amino-2-pyridyl)sulfonyl]-2-[ethyl(methyl)amino]-6-(3-fluoro-5-isobutoxy-phenyl)pyridine-3-carboxamide]",> 80,< 3
"CC(C)COc1cc(F)cc(-c2ccc(C(=O)NS(=O)(=O)c3cccc(N)n3)c(OC(C(C)C)C(C)(C)C)n2)c1 (centres unmarked) [Compound 68, N-[(6-amino-2-pyridyl)sulfonyl]-6-(3-fluoro-5-isobutoxy-phenyl)-2-(1-isopropyl-2,2-dimethyl-propoxy)pyridine-3-carboxamide]",30 to 80,< 3
"CCC(CC)N(C)c1nc(-c2cc(F)cc(OCC(C)C)c2)ccc1C(=O)NS(=O)(=O)c1cccc(N)n1 [Compound 69, N-[(6-amino-2-pyridyl)sulfonyl]-2-[1-ethylpropyl(methyl)amino]-6-(3-fluoro-5-isobutoxy-phenyl)pyridine-3-carboxamide]",> 80,< 3
"CC(C)Oc1ccc(-c2ccc(C(=O)NS(=O)(=O)c3cccc(N)n3)c(N(C)C(C)C)n2)cn1 [Compound 70, N-[(6-amino-2-pyridyl)sulfonyl]-6-(6-isopropoxy-3-pyridyl)-2-[isopropyl(methyl)amino]pyridine-3-carboxamide]",30 to 80,3 to 10
"CCOCC(C)Oc1nc(-c2cc(F)cc(OCC(C)C)c2)ccc1C(=O)NS(=O)(=O)c1cccc(N)n1 (centres unmarked) [Compound 71, N-[(6-amino-2-pyridyl)sulfonyl]-2-(2-ethoxy-1-methyl-ethoxy)-6-(3-fluoro-5-isobutoxy-phenyl)pyridine-3-carboxamide]",30 to 80,< 3
"CC(C)COc1cc(F)cc(-c2ccc(C(=O)NS(=O)(=O)c3ccn[nH]3)c(NCC(C)(C)C)n2)c1 [Compound 72, 2-(2,2-dimethylpropylamino)-6-(3-fluoro-5-isobutoxy-phenyl)-N-(1H-pyrazol-5-ylsulfonyl)pyridine-3-carboxamide]",30 to 80,3 to 10
"CC(C)COc1cc(F)cc(-c2ccc(C(=O)NS(=O)(=O)c3cccc(N)n3)c(OC(C)C(F)(F)F)n2)c1 (centres unmarked) [Compound 73, N-[(6-amino-2-pyridyl)sulfonyl]-6-(3-fluoro-5-isobutoxy-phenyl)-2-(2,2,2-trifluoro-1-methyl-ethoxy)pyridine-3-carboxamide]",30 to 80,< 3
"CCN(c1nc(-c2cc(F)cc(OCC(C)C)c2)ccc1C(=O)NS(=O)(=O)c1cccc(N)n1)C(C)C [Compound 74, N-[(6-amino-2-pyridyl)sulfonyl]-2-[ethyl(isopropyl)amino]-6-(3-fluoro-5-isobutoxy-phenyl)pyridine-3-carboxamide]",> 80,< 3
"CC(C)COc1cc(F)cc(-c2ccc(C(=O)NS(=O)(=O)c3cccc(N)n3)c(N(C)[C@H](C)C(F)(F)F)n2)c1 [Compound 75, N-[(6-amino-2-pyridyl)sulfonyl]-6-(3-fluoro-5-isobutoxy-phenyl)-2-[methyl-[(1R)-2,2,2-trifluoro-1-methyl-ethyl]amino]pyridine-3-carboxamide]",> 80,< 3
"CC(C)COc1cc(F)cc(-c2ccc(C(=O)NS(=O)(=O)c3cccc(N)n3)c(C(C)C(C)C)n2)c1 (centres unmarked) [Compound 76, N-[(6-amino-2-pyridyl)sulfonyl]-2-(1,2-dimethylpropyl)-6-(3-fluoro-5-isobutoxy-phenyl)pyridine-3-carboxamide]",30 to 80,< 3
"CCC(C)(C)CCOc1nc(-c2cc(F)cc(OCC(C)C)c2)ccc1C(=O)NS(=O)(=O)c1cccc(N)n1 [Compound 77, N-[(6-amino-2-pyridyl)sulfonyl]-2-(3,3-dimethylpentoxy)-6-(3-fluoro-5-isobutoxy-phenyl)pyridine-3-carboxamide]",30 to 80,< 3
"CC(C)COc1cc(F)cc(-c2ccc(C(=O)NS(=O)(=O)c3ccn[nH]3)c(N(C)C(C)C)n2)c1 [Compound 79, 6-(3-fluoro-5-isobutoxy-phenyl)-2-[isopropyl(methyl)amino]-N-(1H-pyrazol-5-ylsulfonyl)pyridine-3-carboxamide]",> 80,< 3
"CC(C)COc1cc(F)cc(-c2ccc(C(=O)NS(=O)(=O)c3cccc(N)n3)c(NCCC(C)(C)O)n2)c1 [Compound 80, N-[(6-amino-2-pyridyl)sulfonyl]-6-(3-fluoro-5-isobutoxy-phenyl)-2-[(3-hydroxy-3-methyl-butyl)amino]pyridine-3-carboxamide]",30 to 80,> 10
"CC(C)COc1cc(F)cc(-c2ccc(C(=O)NS(=O)(=O)c3cccc(N)n3)c(OCCC(F)(F)F)n2)c1 [Compound 81, N-[(6-amino-2-pyridyl)sulfonyl]-6-(3-fluoro-5-isobutoxy-phenyl)-2-(3,3,3-trifluoropropoxy)pyridine-3-carboxamide]",30 to 80,< 3
"CC(C)COc1cc(F)cc(-c2ccc(C(=O)NS(=O)(=O)c3cccc(N)n3)c(OCCCC(F)(F)F)n2)c1 [Compound 82, N-[(6-amino-2-pyridyl)sulfonyl]-6-(3-fluoro-5-isobutoxy-phenyl)-2-(4,4,4-trifluorobutoxy)pyridine-3-carboxamide]",30 to 80,< 3
"CC(C)COc1cc(F)cc(-c2ccc(C(=O)NS(=O)(=O)c3cccc(N)n3)c(OC/C=C/C(F)(F)F)n2)c1 [Compound 83, N-[(6-amino-2-pyridyl)sulfonyl]-6-(3-fluoro-5-isobutoxy-phenyl)-2-[(E)-4,4,4-trifluorobut-2-enoxy]pyridine-3-carboxamide]",30 to 80,< 3
"CCCCCNc1nc(-c2cc(F)cc(OCC(C)C)c2)ccc1C(=O)NS(=O)(=O)c1cccc(N)n1 [Compound 84, N-[(6-amino-2-pyridyl)sulfonyl]-6-(3-fluoro-5-isobutoxy-phenyl)-2-(pentylamino)pyridine-3-carboxamide]",> 80,3 to 10
"CCOc1cccc2c1CN(CC(C)(C)C)C2(C)C(=O)NS(=O)(=O)c1cccc(=O)[nH]1 (centres unmarked) [Compound 85, 2-(2,2-dimethylpropyl)-4-ethoxy-1-methyl-N-[(6-oxo-1H-pyridin-2-yl)sulfonyl]isoindoline-1-carboxamide]",≤ 30,> 10
"CC(C)COc1cc(F)cc(-c2ccc(C(=O)NS(=O)(=O)c3ccccc3)c(N(C)CCCC(=O)O)n2)c1 [Compound 86, 4-[[3-(benzenesulfonylcarbamoyl)-6-(3-fluoro-5-isobutoxy-phenyl)-2-pyridyl]-methyl-amino]butanoic Acid]",≤ 30,> 10
